Test results from PubChem BioAssay (NCI).
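Compound exposure: 48 hours, 5 concentrations, 96-well plates. TGI is the concentration that stops growth completely.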

What was measured:
Experiment in all cases: NCI anticancer screen, dose series, 48 h
DU-145 prostate = test system: DU-145 prostate
NCI-H23 lung = test system: NCI-H23 lung
TK-10 renal = test system: TK-10 renal
COLO 205 colon = test system: COLO 205 colon
MDA-N = test system: MDA-N
SK-MEL-5 melanoma = test system: SK-MEL-5 melanoma
U251 CNS = test system: U251 CNS
SW-620 colon = test system: SW-620 colon
HCC-2998 colon = test system: HCC-2998 colon
HL-60(TB) leukemia = test system: HL-60(TB) leukemia
HCT-15 colon = test system: HCT-15 colon
UACC-257 melanoma = test system: UACC-257 melanoma
MDA-MB-435 = test system: MDA-MB-435
MALME-3M melanoma = test system: MALME-3M melanoma
PC-3 prostate = test system: PC-3 prostate
RXF 393 renal = test system: RXF 393 renal
SF-295 CNS = test system: SF-295 CNS
786-0 renal = test system: 786-0 renal
MCF7 breast = test system: MCF7 breast
A498 renal = test system: A498 renal
SR leukemia = test system: SR leukemia
SK-MEL-2 melanoma = test system: SK-MEL-2 melanoma
SK-MEL-28 melanoma = test system: SK-MEL-28 melanoma
NCI-H460 lung = test system: NCI-H460 lung
M14 melanoma = test system: M14 melanoma
SNB-19 CNS = test system: SNB-19 CNS
KM12 colon = test system: KM12 colon
NCI-H522 lung = test system: NCI-H522 lung
HOP-62 NSCLC = test system: HOP-62 NSCLC
OVCAR-8 ovarian = test system: OVCAR-8 ovarian
NCI/ADR-RES ovarian = test system: NCI/ADR-RES ovarian
HS 578T breast = test system: HS 578T breast
SNB-75 CNS = test system: SNB-75 CNS
UACC-62 melanoma = test system: UACC-62 melanoma
SK-OV-3 ovarian = test system: SK-OV-3 ovarian
CAKI-1 renal = test system: CAKI-1 renal
MDA-MB-231 breast = test system: MDA-MB-231 breast
HOP-92 NSCLC = test system: HOP-92 NSCLC
SF-268 CNS = test system: SF-268 CNS
LOX IMVI melanoma = test system: LOX IMVI melanoma
ACHN renal = test system: ACHN renal
OVCAR-3 ovarian = test system: OVCAR-3 ovarian
HT29 colon = test system: HT29 colon
T-47D breast = test system: T-47D breast
HCT-116 colon = test system: HCT-116 colon
BT-549 breast = test system: BT-549 breast
IGROV1 ovarian = test system: IGROV1 ovarian
OVCAR-4 ovarian = test system: OVCAR-4 ovarian
A549 NSCLC = test system: A549 NSCLC
NCI-H226 lung = test system: NCI-H226 lung
EKVX NSCLC = test system: EKVX NSCLC
OVCAR-5 ovarian = test system: OVCAR-5 ovarian
K-562 leukemia = test system: K-562 leukemia
SN12C renal = test system: SN12C renal
UO-31 renal = test system: UO-31 renal
CCRF-CEM leukemia = test system: CCRF-CEM leukemia
RPMI-8226 leukemia = test system: RPMI-8226 leukemia
MOLT-4 leukemia = test system: MOLT-4 leukemia
SF-539 CNS = test system: SF-539 CNS

Measured: TGI

CC(C)C(N)(C(=O)O)c1ccccc1 (configuration not stated)
not listed: MOLT-4 leukemia | SF-539 CNS
> 100 µM: all other assays above

COc1cc2c(cc1OC)CCN=C2
not listed: 786-0 renal | NCI-H522 lung | SF-268 CNS | ACHN renal | A549 NSCLC | EKVX NSCLC | K-562 leukemia | SF-539 CNS
> 100 µM: all other assays above

COc1ccc(C(Nc2ncccn2)c2cc3c(cc2O)OCO3)cc1 (configuration not stated)
45.2 µM: OVCAR-8 ovarian
34.4 µM: UO-31 renal
54.6 µM: MALME-3M melanoma
38.4 µM: SF-268 CNS
69.6 µM: OVCAR-5 ovarian
22.7 µM: SNB-75 CNS
36.4 µM: UACC-257 melanoma
50.9 µM: SK-MEL-5 melanoma
58.4 µM: HT29 colon
55.7 µM: EKVX NSCLC
37.6 µM: TK-10 renal
70.6 µM: COLO 205 colon
33.1 µM: SF-539 CNS
37.8 µM: KM12 colon | SN12C renal
31.1 µM: SNB-19 CNS
64.3 µM: BT-549 breast
43.2 µM: PC-3 prostate
39.3 µM: 786-0 renal
28 µM: T-47D breast
48.2 µM: MDA-MB-231 breast
32.4 µM: SR leukemia
52.4 µM: SK-MEL-28 melanoma | HS 578T breast
39.4 µM: M14 melanoma
32.2 µM: LOX IMVI melanoma
51.2 µM: SK-OV-3 ovarian
44.4 µM: DU-145 prostate
71.3 µM: HCT-116 colon
50.6 µM: MDA-MB-435
36.3 µM: RXF 393 renal
82 µM: MOLT-4 leukemia
31.7 µM: NCI-H522 lung
32.7 µM: OVCAR-3 ovarian
47.4 µM: HCC-2998 colon
54.5 µM: HOP-62 NSCLC
35.3 µM: NCI-H23 lung
77.3 µM: MCF7 breast
28.3 µM: SW-620 colon
46 µM: HL-60(TB) leukemia
46.9 µM: SK-MEL-2 melanoma | CAKI-1 renal
44.6 µM: HCT-15 colon | NCI-H226 lung
42.3 µM: MDA-N
28.7 µM: U251 CNS
59.3 µM: IGROV1 ovarian
47.2 µM: NCI-H460 lung
not listed: CCRF-CEM leukemia
> 100 µM: all other assays above

C[C@@H]1CCC2[C@@H](C)C(=O)O[C@@H]3C4C[C@@H]1[C@@]23OO[C@@]4(C)O (some centres not stated)
94 µM: UO-31 renal
62.7 µM: LOX IMVI melanoma
not listed: HL-60(TB) leukemia | SK-OV-3 ovarian | NCI-H226 lung
> 100 µM: all other assays above
